Experimental data reported in patent US12268666B2, “Spray-dried dispersions, formulations, and polymorphs of (S)-5-amino-3-(4-((5-fluoro-2-methoxybenzamido)methyl)phenyl)-1-(1,1,1-trifluoropropan-2-yl)-1H-pyrazole-4-carboxamide” (Loxo Oncology, Inc., priority 2018, dated 2025).
“Also recorded” adds a separate entry of the source. Like-named read-outs stand apart in the source and are kept apart here.

Tests used:
BTK C481S = BTK C481S (Homo sapiens, UniProt Q06187, C481S); assay: BTK activity assay, [33P]-ATP incorporation into poly-EY; type: biochemical; set-up: against full-length wild type (WT) and mutant human BTK enzymes
BTK C481S, sequence (Q06187 whole entry C481S): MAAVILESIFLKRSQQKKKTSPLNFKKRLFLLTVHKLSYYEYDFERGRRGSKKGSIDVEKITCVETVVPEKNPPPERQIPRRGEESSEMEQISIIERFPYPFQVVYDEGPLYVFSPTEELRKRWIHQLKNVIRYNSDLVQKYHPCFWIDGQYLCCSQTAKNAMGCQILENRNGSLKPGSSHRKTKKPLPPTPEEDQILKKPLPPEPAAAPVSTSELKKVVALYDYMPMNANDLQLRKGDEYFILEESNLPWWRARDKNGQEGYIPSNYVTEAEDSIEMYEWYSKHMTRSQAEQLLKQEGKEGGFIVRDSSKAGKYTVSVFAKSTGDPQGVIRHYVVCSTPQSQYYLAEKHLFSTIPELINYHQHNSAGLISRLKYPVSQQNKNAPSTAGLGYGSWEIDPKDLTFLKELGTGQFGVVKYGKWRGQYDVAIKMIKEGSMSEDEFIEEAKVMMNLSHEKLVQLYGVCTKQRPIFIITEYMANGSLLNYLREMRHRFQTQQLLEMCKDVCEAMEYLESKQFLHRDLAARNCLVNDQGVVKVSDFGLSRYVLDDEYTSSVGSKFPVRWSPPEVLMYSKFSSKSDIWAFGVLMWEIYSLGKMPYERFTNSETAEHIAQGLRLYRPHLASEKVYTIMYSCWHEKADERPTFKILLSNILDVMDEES
Procedure: (§1) The activity of the compound of Formula I against full-length wild type (WT) and mutant human BTK enzymes is determined by monitoring the incorporation [^33P]-PO4 from [γ-^33P]-ATP into poly-glutamic acid-tyrosine (poly-EY) peptide substrate. The reaction mixtures each contained polyhistidine-tagged BTK enzyme, poly-EY and BTK inhibitor at the appropriate concentrations. The reaction mixtures are incubated for 20 minutes at room temperature after which [[γ-^33P]-ATP (radiochemical concentration 10 μCi/μL) at 10 μM or the ATP Km concentration for each enzyme is added. After 2 hours of incubation at room temperature, the radiolabeled peptide substrate is captured, and incorporated radioactivity is quantified.
Each assay is performed at an ATP concentration close to the Km for each enzyme. […] After co-incubation with a serial dilution of the compound of Formula I, the quantity of ^33P incorporated into a peptide substrate is measured and the data analyzed using standard curve fitting methods.

[1] = Solubility screening in lipid vehicles; type: physicochemical
Procedure: The solubility of the compound of Formula I in lipid vehicles is also examined. The compound of Formula I Form A is added into a clear, 20 mL glass vials followed by the corresponding excipients, e.g., MIGLYOL® 812 (saturated coconut and palmkernel oil-derived caprylic and capric fatty acids and glycerin, e.g., C8 and C10 triglycerides), CAPMUL® MCM EP (glyceryl monocaprylocaprate type I (EP)), PECEOL™ (glycerol monooleates (type 40) EP, glyceryl monooleate (type 40) NF), LABRAFIL® M2125CS (linoleoyl polyoxyl-6 glycerides), LAUROGLYCOL™ FCC (propylene glycol monolaurate (type I)), Span® 80 (sorbitane monooleate), PHOSAL® 53 MCT (lecithin in caprylic/capric triglycerides, alcohol, glyceryl stearate, oleic acid, and ascorbyl palmitate), or capmul PG-8 (propylene glycol monocaprylate). The samples are then homogenized with a handheld homogenizer for 10 minutes until the compound of Formula I is visibly dissolved. […] A set of matching control formulations are also prepared.

BTK P190K = molecular target: T1, BTK P190K (Homo sapiens, UniProt Q06187, P190K); assay: BTK activity assay, [33P]-ATP incorporation into poly-EY; type: biochemical; conditions: ATP at Km concentration
T1 construct: against full-length wild type (WT) and mutant human BTK enzymes
T1 sequence (Q06187 whole entry P190K): as the sequence (Q06187 whole entry C481S) above, with P190K, S481C counted along it
Procedure: as §1, with “The” for “The activity of the compound of Formula I against full-length wild type (WT) and mutant human BTK enzymes is determined by monitoring the incorporation [^33P]-PO4 from [γ-^33P]-ATP into poly-glutamic acid-tyrosine (poly-EY) peptide substrate. The”

BTK E41K = molecular target: T2, BTK E41K (Homo sapiens, UniProt Q06187, E41K); assay: as above; type: biochemical; conditions: ATP at Km concentration
T2 construct: against full-length wild type (WT) and mutant human BTK enzymes
T2 sequence (Q06187 whole entry E41K): as the sequence (Q06187 whole entry C481S) above, with E41K, S481C counted along it
Procedure: as §1, with “The” for “The activity of the compound of Formula I against full-length wild type (WT) and mutant human BTK enzymes is determined by monitoring the incorporation [^33P]-PO4 from [γ-^33P]-ATP into poly-glutamic acid-tyrosine (poly-EY) peptide substrate. The”

BTK = molecular target: T3, BTK (Homo sapiens, UniProt Q06187); assay: BTK Y223 autophosphorylation in Ramos RA1 cells; type: cell-based; conditions: anti-human IgM stimulation
T3 construct: host or cells: Ramos RA1
T3 sequence (Q06187 whole entry): as the sequence (Q06187 whole entry C481S) above, with S481C counted along it
Procedure: Ramos RA1 cells, obtained from ATCC (CRL-1596), are grown in RPMI 1640+10% fetal bovine serum (FBS) at 37° C. in a CO2 incubator. […] Nine hundred μL of cell/well are added to 24 well plates and 100 uL of 10× stocks of inhibitor are added. The 10× compound of Formula I stocks are prepared in 1% DMSO, by doing a 1:3 dilution series with final concentrations in the wells ranging between 900 nM to 0.41 nM. […] All samples are tested in triplicate. After 2 hours (starvation and dosing) sodium orthovanadate is added to a final concentration of 200 μM and incubated for 30 more min. Cells are then stimulated with 4 uL of goat F(ab′)2 anti-human IgM (Jackson ImmunoResearch #109-006-129) for 5 min at room temperature, spun down, resuspended in 100 uL of […]™ M (Sigma #C2978) containing 5× Halt phosphatase and protease inhibitor cocktails (Pierce #78442), and stored at −80° C. Lysates are quantified by BCA (Pierce #23225) and analyzed by Simple Western (Protein Simple) with the following antibodies: anti-phospho-BTK (Y223) (Cell Signaling Technologies (CST) #5082), anti-BTK (CST #8547), anti-phospho-PLCγ2 (Y1217) (CST 3871), anti-PLCγ2 (CST 3872), and anti-GAPDH (GAPDH refers to glyceraldehyde 3-phosphate dehydrogenase) (Novus #MAB5718-SP). […] Results are analyzed with Compass software (Protein Simple), and IC50 values are calculated on GraphPad Prism 7.04 software.

## COc1ccc(F)cc1C(=O)NCc1ccc(-c2nn([C@@H](C)C(F)(F)F)c(N)c2C(N)=O)cc1 [compound of Formula I, (S)-5-amino-3-(4-((5-fluoro-2-methoxybenzamido)methyl)phenyl)-1-(1,1,1-trifluoropropan-2-yl)-1H-pyrazole-4-carboxamide]
BTK C481S; 10 μM ATP, read-out: IC50
  IC50: 0.29 nM
BTK C481S; ATP at Km concentration, read-out: IC50 value
  IC50: 1.42 nM
[1]; CAPMUL ® MCM EP, 40 °C
  HPLC Solubility: 33.3 mg API per g mixture
[1]; Capmul PG-8, 25 °C
  HPLC Solubility: 30.3 mg API per g mixture
[1]; Glycerine, 25 °C
  HPLC Solubility: 0.5 mg API per g mixture
[1]; KOLLIPHOR ® EL, 25 °C
  HPLC Solubility: 46.2 mg API per g mixture
[1]; LABRAFIL ® M2125CS, 25 °C
  HPLC Solubility: 3.2 mg API per g mixture
[1]; LABRASOL ® ALF, 25 °C
  HPLC Solubility: 104.1 mg API per g mixture
[1]; LAUROGLYCOL ™ FCC, 25 °C
  HPLC Solubility: 5.1 mg API per g mixture
[1]; Long chain triglycerides/long chain lipid digestion products, 25 °C
  HPLC Solubility: 0.02 mg API per g mixture
[1]; MIGLYOL ® 812, 25 °C
  HPLC Solubility: 0.62 mg API per g mixture
[1]; Medium chain triglycerides/medium chain lipid digestion products, 25 °C
  HPLC Solubility: 0.02 mg API per g mixture
[1]; Oleic acid, 25 °C
  HPLC Solubility: 1.2 mg API per g mixture
[1]; PECEOL ™, 40 °C
  HPLC Solubility: 6.6 mg API per g mixture
[1]; PEG-400 (Macrogol 400), 25 °C
  HPLC Solubility: 168.9 mg API per g mixture
[1]; PHOSAL ® 53 MCT, 25 °C
  HPLC Solubility: 11.3 mg API per g mixture
[1]; Polysorbate 80/Tween-80, 25 °C
  HPLC Solubility: 43.6 mg API per g mixture
[1]; Propylene glycol, 25 °C
  HPLC Solubility: 29.4 mg API per g mixture
[1]; SPAN ® 80, 25 °C
  HPLC Solubility: 6.2 mg API per g mixture
[1]; Sesame oil, 25 °C
  HPLC Solubility: 0.07 mg API per g mixture
[1]; Vitamin E-TPGS NF, 40 °C
  HPLC Solubility: 43.1 mg API per g mixture
[1]; excipient screen for lipid-based formulations
  excipients in which solubility is best: best in PEG 400, LABRASOL® ALF (e.g., caprylocaproyl polyoxyl-8 glycerides), KOLLIPHOR® EL (e.g., polyoxyl castor oil), Tween 80, and Vitamin E TPGS; also recorded: most soluble in LABRASOL® ALF and PEG-400
BTK P190K
  IC50: 2.14 nM
BTK E41K
  IC50: 7.85 nM
BTK
  IC50: 3.2 ± 0.6 nM
